Assay results published in US8741836B2, “Polypeptides” (Novo Nordisk A/S, priority 2011, dated 2014).
Starred links: 1 amine or outer side, 2 acyl side, 3 side chain; linkers in the order of their positions; H or OH if unused. Positions of bridges follow the written chain, without caps; N, C: chain ends. Residues, ends and D or L forms follow the SMILES beside them. *: point of attachment. C20 diacid = O=C(O)CCCCCCCCCCCCCCCCCCC(=O)*; C18 diacid = O=C(O)CCCCCCCCCCCCCCCCC(=O)*; γGlu = O=C(O)[C@H](CCC(=O)[*:2])N[*:1]

Assay: Assay (III) ThT fibrillation assay for physical stability
Assay type: physicochemical
Conditions: for ThT pH 4.0 lag time: pH 4.0, ThT fibrillation assay
Method in brief: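 Freshly prepared, pH-adjusted formulations with 1 μM ThT incubated at 37 °C under 960 rpm orbital shaking (1 mm), fluorescence (ex 444, em 485 nm) read every 20 min. […] Peptide content before and after measured by reverse-phase HPLC against pramlintide standard.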

In the case of `CC[C@H](C)[C@H](NC(=O)[C@@H]1CCCN1C(=O)CNC(=O)[C@H](Cc1ccccc1)NC(=O)[C@H](CC(N)=O)NC(=O)[C@H](CC(N)=O)NC(=O)[C@H](CO)NC(=O)[C@H](CO)NC(=O)[C@H](Cc1c[nH]cn1)NC(=O)[C@H](Cc1c[nH]cn1)NC(=O)[C@H](CC(C)C)NC(=O)[C@H](Cc1ccccc1)NC(=O)[C@H](CCC(=O)O)NC(=O)[C@H](C)NC(=O)[C@H](CC(C)C)NC(=O)[C@H](CCCNC(=N)N)NC(=O)[C@H](CCC(N)=O)NC(=O)[C@@H](NC(=O)[C@H](C)NC(=O)[C@@H]1CSSC[C@H](NC(=O)[C@H](CCCCN)NC(=O)[C@H](Cc2c[nH]cn2)NC(=O)CC[C@H](NC(=O)CCCCCCCCCCCCCCCCC(=O)O)C(=O)O)C(=O)N[C@@H](CC(N)=O)C(=O)N[C@@H]([C@@H](C)O)C(=O)N[C@@H](C)C(=O)N[C@@H]([C@@H](C)O)C(=O)N1)[C@@H](C)O)C(=O)N[C@@H](CC(C)C)C(=O)N1CCC[C@H]1C(=O)N1CCC[C@H]1C(=O)N[C@H](C(=O)N[C@@H](CC(N)=O)C(=O)N[C@H](C(=O)NCC(=O)N[C@@H](CO)C(=O)N[C@@H](Cc1c[nH]cn1)C(=O)N[C@H](C(=O)N[C@@H](Cc1ccc(O)cc1)C(N)=O)[C@@H](C)O)C(C)C)[C@@H](C)O` [Example 70, N-alpha-[(S)-4-Carboxy-4-(17-carboxyheptadecanoylamino)butyryl]-His-[Glu14,His17,His35]-pramlintide] ({C18 diacid-γGlu}-HKCNTATCATQRLAEFLHHSSNNFGPILPPTNVGSHTY-NH2; disulfide 3-8 (inferred)), the “ThT pH 4.0 lag time” value is reported as over 45 h.
With `CC[C@H](C)[C@H](NC(=O)[C@@H]1CCCN1C(=O)CNC(=O)[C@H](Cc1ccccc1)NC(=O)[C@H](CO)NC(=O)[C@H](CO)NC(=O)[C@H](CO)NC(=O)[C@H](CO)NC(=O)[C@H](CCCNC(=N)N)NC(=O)[C@@H](NC(=O)[C@H](CC(C)C)NC(=O)[C@H](Cc1ccccc1)NC(=O)[C@H](CCC(=O)O)NC(=O)[C@H](C)NC(=O)[C@H](CC(C)C)NC(=O)[C@H](CCCNC(=N)N)NC(=O)[C@H](CCC(N)=O)NC(=O)[C@@H](NC(=O)[C@H](C)NC(=O)[C@@H]1CSSC[C@H](NC(=O)[C@H](CCCCN)NC(=O)CC[C@H](NC(=O)CCCCCCCCCCCCCCCCCCC(=O)O)C(=O)O)C(=O)N[C@@H](CC(N)=O)C(=O)N[C@@H]([C@@H](C)O)C(=O)N[C@@H](C)C(=O)N[C@@H]([C@@H](C)O)C(=O)N1)[C@@H](C)O)C(C)C)C(=O)N[C@@H](CC(C)C)C(=O)N[C@@H](CO)C(=O)N[C@@H](CO)C(=O)N[C@H](C(=O)N[C@@H](CC(=O)O)C(=O)N[C@H](C(=O)NCC(=O)N[C@@H](CO)C(=O)N[C@@H](CC(=O)O)C(=O)N[C@H](C(=O)N1CCC[C@H]1C(N)=O)[C@@H](C)O)C(C)C)[C@@H](C)O` [Example 170, N-alpha-[(S)-4-Carboxy-4-(19-carboxynonadecanoylamino)butyryl]-[Glu14,Arg18,Ser21,Ser22,Ser28,Ser29,Asp31,Asp35,Pro37]-pramlintide] ({C20 diacid-γGlu}-KCNTATCATQRLAEFLVRSSSSFGPILSSTDVGSDTP-NH2; disulfide 2-7) the “ThT pH 4.0 lag time (physical stability in fibrillogenesis assay)” value was over 45 h and the “ThT pH 4.0 lag time” value was over 45 h.
In the case of `CC[C@H](C)[C@H](NC(=O)[C@@H]1CCCN1C(=O)CNC(=O)[C@H](Cc1ccccc1)NC(=O)[C@H](CC(N)=O)NC(=O)[C@@H](NC(=O)[C@H](CO)NC(=O)[C@H](CO)NC(=O)[C@H](Cc1c[nH]cn1)NC(=O)[C@H](Cc1c[nH]cn1)NC(=O)[C@H](CC(C)C)NC(=O)[C@H](Cc1ccccc1)NC(=O)[C@H](CCC(=O)O)NC(=O)[C@H](C)NC(=O)[C@H](CC(C)C)NC(=O)[C@H](CCCNC(=N)N)NC(=O)[C@H](CCC(N)=O)NC(=O)[C@@H](NC(=O)[C@H](C)NC(=O)[C@@H]1CSSC[C@H](NC(=O)[C@H](CCCCN)NC(=O)CC[C@H](NC(=O)CCCCCCCCCCCCCCCCCCC(=O)O)C(=O)O)C(=O)N[C@@H](CC(N)=O)C(=O)N[C@@H]([C@@H](C)O)C(=O)N[C@@H](C)C(=O)N[C@@H]([C@@H](C)O)C(=O)N1)[C@@H](C)O)[C@@H](C)O)C(=O)N[C@@H](CC(C)C)C(=O)N1CCC[C@H]1C(=O)N1CCC[C@H]1C(=O)N[C@H](C(=O)N[C@@H](CC(N)=O)C(=O)N[C@H](C(=O)NCC(=O)N[C@@H](CO)C(=O)N[C@@H](CC(N)=O)C(=O)N[C@H](C(=O)N1CCC[C@H]1C(N)=O)[C@@H](C)O)C(C)C)[C@@H](C)O` [Example 146, N-alpha-[(S)-4-Carboxy-4-(19-carboxynonadecanoylamino)butyryl]-[Glu14,His17,Thr21,Pro37]-pramlintide] ({C20 diacid-γGlu}-KCNTATCATQRLAEFLHHSSTNFGPILPPTNVGSNTP-NH2; disulfide 2-7), the “ThT pH 4.0 lag time (physical stability in fibrillogenesis assay)” value is reported as over 45 h and the “ThT pH 4.0 lag time” value is reported as over 45 h.
With `CC[C@H](C)[C@H](NC(=O)[C@@H]1CCCN1C(=O)CNC(=O)[C@H](Cc1ccccc1)NC(=O)[C@H](CC(N)=O)NC(=O)[C@H](CC(N)=O)NC(=O)[C@H](CO)NC(=O)[C@H](CO)NC(=O)[C@H](Cc1c[nH]cn1)NC(=O)[C@H](Cc1c[nH]cn1)NC(=O)[C@H](CC(C)C)NC(=O)[C@H](Cc1ccccc1)NC(=O)[C@H](CCC(=O)O)NC(=O)[C@H](C)NC(=O)[C@H](CC(C)C)NC(=O)[C@H](CCCNC(=N)N)NC(=O)[C@H](CCC(N)=O)NC(=O)[C@@H](NC(=O)[C@H](C)NC(=O)[C@@H]1CSSC[C@H](NC(=O)[C@H](CCCCN)NC(=O)CC[C@H](NC(=O)CCCCCCCCCCCCCCCCCCC(=O)O)C(=O)O)C(=O)N[C@@H](CC(N)=O)C(=O)N[C@@H]([C@@H](C)O)C(=O)N[C@@H](C)C(=O)N[C@@H]([C@@H](C)O)C(=O)N1)[C@@H](C)O)C(=O)N[C@@H](CC(C)C)C(=O)N1CCC[C@H]1C(=O)N1CCC[C@H]1C(=O)N[C@H](C(=O)N[C@@H](CC(N)=O)C(=O)N[C@H](C(=O)NCC(=O)N[C@@H](CO)C(=O)N[C@@H](CCCCN)C(=O)N[C@H](C(=O)N[C@@H](Cc1ccc(O)cc1)C(N)=O)[C@@H](C)O)C(C)C)[C@@H](C)O` [Example 113, N-alpha-[(S)-4-Carboxy-4-(19-carboxynonadecanoylamino)butyryl]-[Glu14,His17,Lys35]-pramlintide] ({C20 diacid-γGlu}-KCNTATCATQRLAEFLHHSSNNFGPILPPTNVGSKTY-NH2; disulfide 2-7 (inferred)) the “ThT pH 4.0 lag time (physical stability in fibrillogenesis assay)” value was over 45 h and the “ThT pH 4.0 lag time” value was over 45 h.
